The text below walks through data of PubChem BioAssay AID602205 (Sanford-Burnham Center for Chemical Genomics, 2012).

Active and inactive are the calls of the source. The rule behind the calls is not given here.

Sequence of Ubiquitin-conjugating enzyme E2 N (Homo sapiens) (P61088 whole entry, looked up): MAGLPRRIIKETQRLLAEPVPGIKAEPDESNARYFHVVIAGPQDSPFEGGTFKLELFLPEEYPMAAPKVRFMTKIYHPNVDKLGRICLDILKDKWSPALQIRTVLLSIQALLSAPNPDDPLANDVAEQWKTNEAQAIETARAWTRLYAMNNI

The experiment addresses Ubiquitin-conjugating enzyme E2 N (Homo sapiens) (UniProt P61088). Briefly: UBC13 polyubiquitination inhibitors, SAR follow-up, biochemical, TR-FRET, set 3 (AID 602205). Conditions: TR-FRET polyubiquitination assay. (In general: Time-resolved FRET reads energy transfer from a long-lived donor to a nearby acceptor.)
With `Cc1ccc(NC(=O)C2CCN(c3ncnc4c3nc3n4CCCCC3)CC2)cc1F`, the IC50 entry was “inactive”. For `Cc1ccc(NC(=O)C2CCN(c3ncnc4c3nc3n4CCCCC3)CC2)c(Cl)c1` the value was > 100 µM (inactive); for `O=C(Nc1ccc(CN2CCCCC2)cc1)C1CCN(c2ncnc3c2nc2n3CCCCC2)CC1`, > 100 µM (inactive). As for `Fc1ccccc1N1CCN(c2ncnc3c2nc2n3CCCC2)CC1`, the figure is > 100 µM (inactive); as for `c1ccc(CN2CCN(c3ncnc4c3nc3n4CCCC3)CC2)cc1`, > 100 µM (inactive); as for `Cc1ccc(Cl)cc1N1CCN(c2ncnc3c2nc2n3CCCC2)CC1`, > 100 µM (inactive). As for `COc1ccc(NC(=O)C2CCN(c3ncnc4c3nc3n4CCCCC3)CC2)cc1Cl`, the figure is > 100 µM (inactive); as for `O=C(Nc1cc(F)ccc1F)C1CCN(c2ncnc3c2nc2n3CCCCC2)CC1`, “inactive”; as for `COc1ccc(Cl)cc1NC(=O)C1CCN(c2ncnc3c2nc2n3CCCCC2)CC1`, “inactive”. Take `Cc1ccc(NC(=O)C2CCN(c3ncnc4c3nc3n4CCCCC3)CC2)cc1C`: the IC50 entry is “inactive”. As for `Cc1c(Cl)cccc1NC(=O)C1CCN(c2ncnc3c2nc2n3CCCCC2)CC1`, the entry is “inactive”; as for `O=C(Nc1cccc(Cl)c1)C1CCN(c2ncnc3c2nc2n3CCCCC2)CC1`, 9.63 µM. `CCOc1ccc(CCNC(=O)CCCCCN2C(=O)c3ccccc3C2=O)cc1OCC`: the IC50 was > 100 µM (inactive). For `COc1cc(Cl)c(C)cc1NC(=O)C1CCN(c2ncnc3c2nc2n3CCCCC2)CC1` the value was > 100 µM (inactive); for `O=C(CCCCCN1C(=O)c2ccccc2C1=O)NCCc1ccccc1`, > 100 µM (inactive); for `Cc1cc(Cl)ccc1NC(=O)C1CCN(c2ncnc3c2nc2n3CCCCC2)CC1`, “inactive”. On to `c1nc(N2CCC(N3CCCCC3)CC2)c2nc3n(c2n1)CCCC3`, for which the IC50 was > 100 µM (inactive). On to `CC1CN(S(=O)(=O)c2ccc(NC(=O)CCCCCN3C(=O)c4ccccc4C3=O)cc2)CC(C)O1` (centres undefined), for which the IC50 is > 100 µM (inactive). As for `COc1cc(OC)c(NC(=O)C2CCN(c3ncnc4c3nc3n4CCCCC3)CC2)cc1Cl`, the figure is > 100 µM (inactive).

By IC50 is commonly meant the midpoint of a concentration-inhibition curve.
